This is an account of results in ChEMBL document CHEMBL5236548, “Marine Natural Products: A Potential Source of Anti-hepatocellular Carcinoma Drugs” (J Med Chem, 2021).

In data set [1] the test system is HepG2. As to the kind of experiment: Cytotoxicity against human HepG2 cells by SRB assay. Format: functional, cell-based. (In SRB staining, fixed cells bind dye roughly in proportion to their protein.)
Data set [2] relates to SMMC-7721. Nature of the data set: Cytotoxicity against human SMMC-7721 cells by SRB assay. Format: functional, cell-based.
For data set [3], the system named is PLC-PRF-5. Nature of the data set: Cytotoxicity against human PLC-PRF-5 cells by SRB assay. Format: functional, cell-based.
Another data set has as its system HA22T cell line. Nature of the data set: Cytotoxicity against human HA22T cells by MTT assay. Format: functional, cell-based.
The subject of data set [4] is Hep 3B2. As to the kind of experiment: Cytotoxicity against human Hep3B cells by MTT assay. The data set is classed as functional, cell-based.
Data set [5] relates to HepG2. Nature of the data set: Cytotoxicity against human HepG2 cells by MTT assay. Format: functional, cell-based. (In general: Tetrazolium dyes change colour on reduction, which living cells bring about.)
For data set [6], the system named is Bel-7402. As to the kind of experiment: Cytotoxicity against human 7402 hepatoma cells incubated for 24 hrs by MTT assay. The note with it: Bel-7402, 24 h. Format: functional, cell-based.
The next data set relates to MDA-MB-435. Nature of the data set: Cytotoxicity against human MDA-MB-435 cells incubated for 24 hrs by MTT assay. The note with it: MDA-MB-435, 24 h. The data set is classed as functional, cell-based.
Data set [7] deals with SMMC-7721. As to the kind of experiment: Induction of cell cycle arrest in human SMMC-7721 cells assessed as accumulation of cells at G0/G1 phase at 100 nM incubated for 24 hrs relative to control. The data set is classed as functional.
In data set [8] the test system is PLC-PRF-5. As to the kind of experiment: Induction of cell cycle arrest in human PLC-PRF-5 cells assessed as accumulation of cells at G0/G1 phase at 50 nM incubated for 24 hrs relative to control. The data set is classed as functional.
Data set [9] deals with PLC-PRF-5. Nature of the data set: Induction of cell cycle arrest in human PLC-PRF-5 cells assessed as accumulation of cells at G0/G1 phase at 100 nM incubated for 24 hrs relative to control. Format: functional.
Data set [10] has as its system SMMC-7721. Nature of the data set: Antitumor activity against human SMMC-7721 cells xenografted in mouse assessed as reduction in tumor growth at 25 microg/kg administered daily for 40 days relative to control. The data set is classed as functional. The arrangement: scale not given: the % may be the effect or the level left. As to conditions: dose 25 µg/kg; time 40 day. A general note: In xenograft studies the graft and the host belong to different species.

For data set [11], the system named is SMMC-7721. As to the kind of experiment: Induction of cell cycle arrest in human SMMC-7721 cells assessed as accumulation of cells at G0/G1 phase at 50 nM incubated for 24 hrs relative to control. Format: functional.
Data set [12] has as its system PLC-PRF-5. Nature of the data set: Induction of cell cycle arrest in human PLC-PRF-5 cells assessed as accumulation of cells at G0/G1 phase at 200 nM incubated for 24 hrs relative to control. The data set is classed as functional.
The subject of data set [13] is SMMC-7721. Nature of the data set: Induction of cell cycle arrest in human SMMC-7721 cells assessed as accumulation of cells at G0/G1 phase at 200 nM incubated for 24 hrs relative to control. Format: functional.
The test system of data set [14] is SMMC-7721. Nature of the data set: Antitumor activity against human SMMC-7721 cells xenografted in mouse assessed as reduction in tumor growth at 50 microg/kg administered daily for 40 days relative to control. The data set is classed as functional. Also on record: scale not given: the % may be the effect or the level left. As to conditions: dose 50 µg/kg; time 40 day.

The next data set relates to H22. Nature of the data set: Antitumor activity against […] cells xenografted in mouse assessed as reduction in tumor volume at 2 mg/kg, ip administered daily for 21 days by caliper method relative to control. As to conditions: time 21 day. Also on record: scale not given: the % may be the effect or the level left. Format: functional.
A short description of data set [15]: Half life in Kunming mouse at 15 to 30 mg/kg measured upto 240 mins. Format: ADME, organism-based. The note with it: in vivo, dose 15-30 mg/kg.
Data set [16] relates to Bel-7402. As to the kind of experiment: Antitumor activity against human Bel-7402 cells xenografted in mouse assessed as reduction in tumor volume at 2 mg/kg, ip administered daily for 21 days by caliper method relative to control. The data set is classed as functional. Also on record: scale not given: the % may be the effect or the level left. As to conditions: time 21 day.

The subject of data set [17] is HepG2. As to the kind of experiment: Antiproliferative activity against doxorubicin resistant human HepG2 cells for 24 hrs in presence of c-phycocyanin by MTT assay. The note with it: HepG2, 24 h.
Data set [18] has as its system SMMC-7721. As to the kind of experiment: Antiproliferative activity against human SMMC-7721 cells measured after 48 hrs. Format: functional, cell-based. The note with it: SMMC-7721, 48 h.
Data set [19] has as its system SMMC-7721. As to the kind of experiment: Cytotoxicity against human SMMC-7721 cells assessed as reduction in cell viability by SRB assay. Format: functional, cell-based.
In data set [20] the test system is Bel-7402. As to the kind of experiment: Cytotoxicity against human Bel-7402 cells by SRB assay. The data set is classed as functional, cell-based.
For data set [21], the system named is Hep 3B2. As to the kind of experiment: Cytotoxicity against human Hep3B cells by SRB assay. Format: functional, cell-based.
A short description of data set [22]: Cytotoxicity against human HCC cells by SRB assay. Format: functional, cell-based.
The nature of data set [23]: Cytotoxicity against human Zip177 cells by SRB assay. The data set is classed as functional, cell-based.
Data set [24] has as its system HepG2. As to the kind of experiment: Anticancer activity against human HepG2 cells by MTT assay. The data set is classed as functional, cell-based.
Data set [25] can be described thus: Antiproliferative activity against human HCC cells by MTT assay. Format: functional, cell-based.
In another data set the test system is SNU-387. Nature of the data set: Antiproliferative activity against human SNU-387 cells by MTT assay. Format: functional, cell-based.
A further data set concerns Huh-7. Nature of the data set: Antiproliferative activity against human Huh-7 cells by MTT assay. The data set is classed as functional, cell-based.
Data set [26] deals with HepG2. As to the kind of experiment: Antiproliferative activity against human HepG2 cells by MTT assay. Format: functional, cell-based.
For data set [27], the system named is HepG2. Nature of the data set: Antiproliferative activity against human HepG2 cells assessed as reduction in cell viability at 50 ug/ml measured after 24 hrs relative to control. The note with it: HepG2, 24 h. Format: functional, cell-based.

Consider `C[C@@H]1O[C@@H](O[C@H]2CC[C@H](O[C@@]3(C)CC(=O)[C@]4(O)C5=C(C=C[C@]4(O)C3)C(=O)c3c(ccc([C@H]4C[C@H]6O[C@H]7CC(=O)[C@H](C)O[C@@H]7O[C@@H]6[C@@H](C)O4)c3O)C5=O)O[C@H]2C)C=CC1=O`, for which the IC50 with HepG2 [1] was 135 nM; in the data set with SMMC-7721 [2] it was 33 nM; in the data set with PLC-PRF-5 [3] it was 244 nM.

On to `CCCCC/C=C\CC1(O)C=C(Br)C(=O)/C1=C\C=C\CCCC(=O)OC` (stereo not given), for which the half-maximal inhibitory concentration (IC50) in the data set on HA22T cell line came to 410 nM; with Hep 3B2 [4], 470 nM; in the data set on HepG2 [5] it was 590 nM.

As to `COC(=O)N[C@H]1[C@@H](C)O[C@@H](O[C@H]2C/C=C(\C)[C@@H]3C=C[C@@H]4[C@@H](O[C@H]5C[C@@H](O[C@H]6C[C@@H](O)[C@@H](O[C@@H]7C[C@@H](O)[C@@H](OC)[C@H](C)O7)[C@H](C)O6)[C@@H](O)[C@H](C)O5)[C@H](C)C[C@H](C)[C@H]4[C@]3(C)/C(O)=C3\C(=O)O[C@]4(C[C@@H](C)C(CO)=C[C@H]4/C=C/2C)C3=O)C[C@]1(C)N`, the IC50 was determined as 625000 nM in the data set on Bel-7402 [6] and 6480 nM in the data set with MDA-MB-435.

For the molecule `CCC/C=C/C=C/C(=O)O[C@H]1/C(=C/C(=O)OC)C[C@H]2C[C@H]([C@@H](C)O)OC(=O)C[C@H](O)C[C@@H]3C[C@H](OC(C)=O)C(C)(C)[C@](O)(C[C@@H]4C/C(=C/C(=O)OC)C[C@H](/C=C/C(C)(C)[C@]1(O)O2)O4)O3` [BRYOSTATIN 1], the Activity in the data set with SMMC-7721 [7] is on record as 44%; in the data set on PLC-PRF-5 [8], 34%; with PLC-PRF-5 [9], 40%; with SMMC-7721 [10], 32%; with SMMC-7721 [11], 37%; in the data set on PLC-PRF-5 [12], 54%. Further, the Activity is reported as 56% with SMMC-7721 [13] and 39% in the data set on SMMC-7721 [14].

Take `COc1cccc2c1C(=O)c1c(O)c3c(c(O)c1C2=O)C[C@@](O)(C(=O)CO)C[C@@H]3O[C@H]1C[C@H](N)[C@H](O)[C@H](C)O1.Cl` [DOXORUBICIN HYDROCHLORIDE]: the Activity with H22 is on record as 51.9%; in the data set with Bel-7402 [16] it was 73.5%. In [15], this molecule showed a half-life of 23 h.

Turning to `COc1cccc2c1C(=O)c1c(O)c3c(c(O)c1C2=O)C[C@@](O)(C(=O)CO)C[C@@H]3O[C@H]1C[C@H](N)[C@H](O)[C@H](C)O1` [DOXORUBICIN], the IC50 in the data set with HepG2 [17] is 10000 nM; with HepG2 [1] it was 919 nM; in the data set with SMMC-7721 [2], 706 nM; with PLC-PRF-5 [3], 1030 nM.

Turning to `O=c1[nH]cc(F)c(=O)[nH]1` [FLUOROURACIL], the half-inhibitory concentration (IC50) in the data set on SMMC-7721 [18] came to 20000 nM.

Regarding `COC(=O)[C@H](CCCC(C)C)[C@H]1CC[C@H]2[C@@H]3CC[C@H]4CC(=O)C=C[C@]4(C)[C@H]3CC[C@]12C` [METHYL SPONGOATE], the IC50 in the data set with SMMC-7721 [19] amounted to 2000 nM; in the data set on Bel-7402 [20] it was 1700 nM; in the data set with Hep 3B2 [21], 5000 nM; in [22], 4400 nM; in [23], 3000 nM.

For the molecule `CO[C@@]12[C@H](COC(N)=O)C3=C(C(=O)C(C)=C(N)C3=O)N1C[C@@H]1N[C@@H]12` [MITOMYCIN], the IC50 in the data set on HepG2 [24] stood at 130 nM.

Take `CNC(=O)c1cc(Oc2ccc(NC(=O)Nc3ccc(Cl)c(C(F)(F)F)c3)cc2)ccn1` [SORAFENIB]: the IC50 in [25] came to 21200 nM; in the data set on SNU-387, 259000 nM; in the data set on Huh-7, 4250 nM; in the data set with HepG2 [26], 6400 nM.

Turning to H-RIRDAIAHGYIVDKV-OH, in the data set with HepG2 [27], the 50% inhibitory concentration (IC50) stood at 28300 nM.

A word on the IC50: it is the concentration that inhibits the measured activity by half. A word on the half-life: it is the time in which the quantity being followed falls by half.
